Results reported in US8217155B2 (Gilead Colorado, Inc., priority 2007, dated 2012).
Read-outs that look alike come from different tables or passages of the source. Values belong to the molecule of their own block, whether it stands above or below them.

Columns and labels:
[1] = molecular target: T1, human ETA receptors expressed in CHO cells (Homo sapiens, UniProt P25101); assay: In vitro ETA receptor binding, [125I]-labeled ET-1 displacement; conditions: incubation time 30 minutes; for affinity for the ETA receptor relative to that for the ETB receptor: CHO cells; for Ki: not steady-state, read-out: Ki ± SE, ETA
T1 construct: expressed in transfected cells; host or cells: CHO cells (membranes)
T1 sequence (P25101 21-427): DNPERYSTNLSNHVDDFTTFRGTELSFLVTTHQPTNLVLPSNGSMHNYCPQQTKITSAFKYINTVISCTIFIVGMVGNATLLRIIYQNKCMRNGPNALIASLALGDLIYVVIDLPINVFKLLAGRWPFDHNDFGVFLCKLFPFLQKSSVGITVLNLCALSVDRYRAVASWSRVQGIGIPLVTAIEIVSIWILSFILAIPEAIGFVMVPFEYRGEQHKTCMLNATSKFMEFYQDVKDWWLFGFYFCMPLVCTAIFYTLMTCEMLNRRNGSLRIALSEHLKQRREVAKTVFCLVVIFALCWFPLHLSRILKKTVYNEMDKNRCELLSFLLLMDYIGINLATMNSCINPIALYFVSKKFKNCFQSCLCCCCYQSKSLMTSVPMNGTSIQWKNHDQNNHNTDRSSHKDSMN
Protocol: (§1) The test compounds are dissolved at 10^−2M in methanol: Cremophor EL® 100:1 and diluted in deionized water to concentrations of […] to 10^−6 M. Binding reactions are initiated by addition of [^125I]-labeled ET-1 or [^125I]-labeled ET-3 for the ETA and ETB receptors, respectively, after 2 minutes preincubation of the membranes in the presence of Metabolite B or Metabolite C. The specific radioligand binding to each receptor is calculated as the difference between total binding and non-specific binding, determined in the presence of an excess of unlabeled ET-1. IC; values are determined by nonlinear curve fitting from experiments performed with 3 concentrations of test compound.

[2] = molecular target: T2, human ETB receptors expressed in CHO cells (Homo sapiens, UniProt P24530); assay: In vitro ETB receptor binding, [125I]-labeled ET-3 displacement; conditions: incubation time 30 minutes, not steady-state; read-out: Ki ± SE, ETB
T2 construct: expressed in transfected cells; host or cells: CHO cells (membranes)
T2 sequence (P24530 27-442): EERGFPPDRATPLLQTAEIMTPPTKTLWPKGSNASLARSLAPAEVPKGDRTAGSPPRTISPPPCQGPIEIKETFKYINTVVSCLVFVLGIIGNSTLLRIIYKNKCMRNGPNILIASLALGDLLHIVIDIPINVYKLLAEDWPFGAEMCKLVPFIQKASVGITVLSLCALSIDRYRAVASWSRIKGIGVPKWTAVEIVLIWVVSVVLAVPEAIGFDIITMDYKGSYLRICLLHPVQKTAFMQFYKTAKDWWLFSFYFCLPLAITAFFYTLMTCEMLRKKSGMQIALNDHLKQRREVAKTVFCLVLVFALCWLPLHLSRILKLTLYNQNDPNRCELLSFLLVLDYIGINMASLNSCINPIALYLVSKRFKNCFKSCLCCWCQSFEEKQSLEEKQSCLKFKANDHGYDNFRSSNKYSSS
Protocol: as §1

[3] = In vivo excretion in dogs; conditions: dog, after single 3 mg/kg oral dose of ambrisentan
CYP isoenzymes = assay: Reaction phenotyping with microsomes expressing single CYP isoenzymes; type: in vitro ADME
From the text: (§2) Reaction phenotyping using microsomes expressing single CYP isoenzymes or uridine diphosphate glucuronosyl transferase (UGT) isoenzymes are used to identity those enzymes that are sufficient to metabolize ambrisentan in vitro.

[4] = In vitro metabolism in rat hepatocytes; type: in vitro ADME; conditions: 24-hour period
[5] = In vitro metabolism in dog hepatocytes; conditions: 24-hour period
[6] = In vivo excretion in rats; conditions: ADME studies
[7] = Biliary excretion and enterohepatic circulation in rats; type: in vivo, male rats
Protocol: Bile and urine are collected over a 24-hour period. […] To assess enterohepatic circulation, a second set of rats (acceptor rats) is intraduodenally dosed with pooled bile (0-12 hour period) from the first set of rats (donor rats), and bile and urine are again collected over a 24-hour period. […] The metabolite patterns in bile from donor and acceptor rats are similar.

[8] = In vitro metabolism in human hepatocytes; type: in vitro ADME; conditions: 24-hour period
ETA receptor = molecular target: T3, ETA receptor (Homo sapiens, UniProt P25101); conditions: human ventricular tissue; cited from earlier work
T3 construct: Studies performed in human ventricular tissue with ambrisentan; from tissue; host or cells: human ventricular tissue
T3 sequence (P25101 21-427): T1 sequence (P25101 21-427)

[9] = test system: uridine diphosphate glucuronosyl transferase (UGT) isoenzymes; assay: Reaction phenotyping with microsomes expressing single UGT isoenzymes; type: in vitro ADME
From the text: as §2

[10] = Isolated perfused rat liver model; type: in vitro ADME, male Wistar rats; conditions: for cumulative excretion of total radioactivity in the bile: six hours; for decrease of total radioactivity in the perfusate: six hours post-dose
Protocol: The metabolic pathways of ambrisentan in male Wistar rats are investigated using the isolated perfused rat liver model. […] The livers are removed from 2 animals in each dose group and perfused in a recirculating system for 6 hours and the metabolite pattern of the perfusion medium and bile determined.

[11] = In vitro metabolism in liver microsomes (phase I); type: in vitro ADME; conditions: rat, dog, and human liver microsomes
[12] = Biliary excretion in dogs; conditions: 10 mg/kg intraduodenal, eight hours post-administration
[13] = cited from earlier work
[14] = both, dog, in vivo, 10 mg/kg
[15] = dog, in vivo, po, 3 mg/kg
[16] = dog, human, 24 h
[17] = donor rats, intraduodenal, within 24 hours

affinity for the ETA receptor relative to that for the ETB receptor [1]: about 100 times | Ki [1]: 22.2 ± 4.2 nM | Ki [2]: 556 ± 43.6 nM
Structure (SMILES): Cc1cc(C)nc(OC(C(=O)O)C(O)(c2ccccc2)c2ccccc2)n1 (racemic) [Metabolite C]

metabolite pattern in excreta [3]: main metabolite in urine
Structure (SMILES): Cc1cc(C)nc(O)n1 [4,6-dimethyl-2hydroxypyrimidine, 4,6-dimethyl-2-hydroxypyrimidine]

CYP isoenzymes that oxidatively metabolize the compound (CYP isoenzymes): CYP3A4, CYP2C19, and CYP3A5 | metabolized by phase II pathway [4]: 15% | radiolabeled ambrisentan metabolized by phase II pathway [5]: 25% | share of parent compound among metabolic species in feces [6]: ca. 80% | total radioactivity recovered in the bile of acceptor rats ([7]; acceptor rats dosed intraduodenally with pooled donor bile, 24-hour period): 76.5-94% | total radioactivity recovered from the bile [7, 17]: 94.8% | total radioactivity recovered from the urine [7, 17]: 1.5% | share of parent compound among metabolic species in bile ([7]; rats, biliary excretion study): 95% | Ki [1]: 0.63 ± 0.2 nM | radiolabeled ambrisentan metabolized by phase II pathway [8]: 21% | UGT isoenzymes that glucuronidate the compound [9]: UGT1A9S, UGT2B7S, and UGT1A3S | cumulative excretion of total radioactivity in the bile ([10]; 3 mg/kg dose): 25% | decrease of total radioactivity in the perfusate ([10]; 3 mg/kg dose): 55% | cumulative excretion of total radioactivity in the bile ([10]; 10 mg/kg dose): 30% | decrease of total radioactivity in the perfusate ([10]; 10 mg/kg dose): 55% | cumulative excretion of total radioactivity in the bile ([10]; 30 mg/kg dose): 31% | decrease of total radioactivity in the perfusate ([10]; 30 mg/kg dose): 45% | turnover of parent compound to hydroxylated metabolite (Metabolite B) [11]: 3-4% | total radioactivity excreted into the bile ([12]; female dogs): 47% | total radioactivity excreted into the bile ([12]; male dogs): 54%
Structure (SMILES): COC(c1ccccc1)(c1ccccc1)[C@H](Oc1nc(C)cc(C)n1)C(=O)O [Ambrisentan, (S)-2-[(4,6-dimethylpyrimidin-2-yl)oxy]-3-methoxy-3,3-diphenylpropionic acid]
affinity for the ETA receptor (ETA receptor): high affinity (low Ki) | mean 6MWD, mean increase from baseline ([13]; all patients, after 12 weeks of treatment): 36 meters | primary efficacy endpoint (exercise capacity measured by 6MWD) ([13]; phase II trials, all four dose groups): statistically significant and clinically meaningful increase

share of the total radioactivity in bile [14]: 77-81% | metabolite pattern in excreta [15]: main metabolite in feces
Structure (SMILES): COC(c1ccccc1)(c1ccccc1)[C@H](Oc1nc(C)cc(C)n1)C(=O)O[C@@H]1O[C@H](C(=O)O)[C@@H](O)[C@H](O)[C@H]1O [Metabolite A, (2S,3S,4S,5R,6S)-6-((S)-2-(4,6-Dimethylpyrimidin-2-yloxy)-3-methoxy-3,3-diphenylpropanoyloxy)-3,4,5-trihydroxytetrahydro-2H-pyran-2-carboxylic acid]

affinity for the ETA receptor relative to that for the ETB receptor [1]: about 100 times | Ki [1]: 40.3 ± 6.1 nM | Ki [2]: 4100 ± 322 nM | amount of hydroxylated metabolite detected [16]: < 1%
Structure (SMILES): COC(c1ccccc1)(c1ccccc1)[C@H](Oc1nc(C)cc(CO)n1)C(=O)O [Metabolite B, (S)-2-(4-(Hydroxymethyl)-6-methylpyrimidin-2-yloxy)-3-methoxy-3,3-diphenylpropanoic acid]
